According to patent US12162872B2, “Cycloalkylurea derivative” (Sumitomo Pharma Co., Ltd., priority 2019, dated 2024):

Biological target: T1, Human orexin receptor type 2 (Homo sapiens, UniProt O43614)
T1 construct: expressed in transfected cells; host or cells: CHO cells (transient expression)
T1 sequence (O43614 1-444): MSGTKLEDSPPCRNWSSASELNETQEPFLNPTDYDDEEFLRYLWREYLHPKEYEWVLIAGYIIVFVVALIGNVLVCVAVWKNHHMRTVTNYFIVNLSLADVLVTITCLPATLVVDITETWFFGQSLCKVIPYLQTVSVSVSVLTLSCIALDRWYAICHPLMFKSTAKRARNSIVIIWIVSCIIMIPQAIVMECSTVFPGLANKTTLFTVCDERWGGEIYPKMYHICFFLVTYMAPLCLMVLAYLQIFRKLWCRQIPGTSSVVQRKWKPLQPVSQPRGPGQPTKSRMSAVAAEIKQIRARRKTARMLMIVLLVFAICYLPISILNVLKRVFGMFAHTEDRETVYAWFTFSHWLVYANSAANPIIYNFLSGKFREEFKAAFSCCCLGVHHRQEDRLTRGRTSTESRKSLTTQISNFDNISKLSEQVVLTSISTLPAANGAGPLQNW
Experiment: Test 1: Evaluation of agonist activity for orexin receptor type 2 (aequorin luminescence, intracellular calcium mobilization in CHO cells)
Assay type: cell-based
Conditions: relative percentage of luminescence for the luminescence (100%) of Orexin A (100 pM); CHO cells transiently expressing human orexin receptor type 2 and apoaequorin; Orexin A Lot. 641114
How it was run: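 CHO cells transiently expressing human OX2 receptor and apoaequorin, seeded 16-22 h, loaded with 1 μM coelenterazine hcp for 2 h at room temperature. Compound added in Hanks/20 mM HEPES/0.1% BSA, 0.1% DMSO final, and calcium luminescence measured. Activity expressed as percent of the 100 pM Orexin A response.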

| Structure (SMILES) | agonist activity (%) |
| --- | --- |
| CC(C)N1CCN([C@H]2CCCC(F)(F)[C@@H]2NC(=O)N2CCC(C)(c3noc(CC(F)(F)F)n3)CC2)CC1 [Example 70, N-{(1R,6S)-2,2-difluoro-6-[4-(propan-2-yl)piperazin-1-yl]cyclohexyl}-4-methyl-4-[5-(2,2,2-trifluoroethyl)-1,2,4-oxadiazol-3-yl]piperidine-1-carboxamide] | 141 |
| CC(C)N1CC[C@H](O[C@H]2CCCC(F)(F)[C@@H]2NC(=O)N2CCC(C)(c3noc(C4CC4)n3)CC2)C1 [Example 71, 4-(5-cyclopropyl-1,2,4-oxadiazol-3-yl)-N-[(1R,6S)-2,2-difluoro-6-{[(3S)-1-(propan-2-yl)pyrrolidin-3-yl]oxy}cyclohexyl]-4-methylpiperidine-1-carboxamide] | 199 |
| CC(C)N1CC[C@H](O[C@H]2CCCC(F)(F)[C@@H]2NC(=O)N2CCC(C)(c3noc([C@@H]4C[C@@H]4F)n3)CC2)C1 [Example 72, N-[(1R,6S)-2,2-difluoro-6-{[(3S)-1-(propan-2-yl)pyrrolidin-3-yl]oxy}cyclohexyl]-4-{5-[(1S,2S)-2-fluorocyclopropyl]-1,2,4-oxadiazol-3-yl}-4-methylpiperidine-1-carboxamide] | 146 |
| CC(C)N1CC[C@@H](O[C@H]2CCCC(F)(F)[C@@H]2NC(=O)N2CCC(C)(c3noc([C@@H]4C[C@@H]4F)n3)CC2)C1 [Example 73, N-[(1R,6S)-2,2-difluoro-6-{[(3R)-1-(propan-2-yl)pyrrolidin-3-yl]oxy}cyclohexyl]-4-{5-[(1S,2S)-2-fluorocyclopropyl]-1,2,4-oxadiazol-3-yl}-4-methylpiperidine-1-carboxamide] | 185 |
| CC(C)N1CC[C@H](O[C@H]2CCCC(F)(F)[C@@H]2NC(=O)N2CCC(C)(c3noc([C@@H]4C[C@@H]4C)n3)CC2)C1 [Example 74, N-[(1R,6S)-2,2-difluoro-6-{[(3S)-1-(propan-2-yl)pyrrolidin-3-yl]oxy}cyclohexyl]-4-methyl-4-(5-[(1R,2S)-2-methylcyclopropyl]-1,2,4-oxadiazol-3-yl)piperidine-1-carboxamide] | 174 |
| CC(C)N1C[C@H](O[C@H]2CCCC(F)(F)[C@@H]2NC(=O)N2CCC(C)(c3noc(C4CC4)n3)CC2)[C@@H](F)C1 [Example 75, 4-(5-cyclopropyl-1,2,4-oxadiazol-3-yl)-N-[(1R,6S)-2,2-difluoro-6-{[(3S,4S)-4-fluoro-1-(propan-2-yl)pyrrolidin-3-yl]oxy}cyclohexyl]-4-methylpiperidine-1-carboxamide] | 141 |
| CC(C)N1C[C@@H](O[C@H]2CCCC(F)(F)[C@@H]2NC(=O)N2CCC(C)(c3noc(C4CC4)n3)CC2)C(F)(F)C1 [Example 76, 4-(5-cyclopropyl-1,2,4-oxadiazol-3-yl)-N-[(1R,6S)-6-{[(3R)-4,4-difluoro-1-(propan-2-yl)pyrrolidin-3-yl]oxy}-2,2-difluorocyclohexyl]-4-methylpiperidine-1-carboxamide] | 145 |
| CC(C)N1CCN([C@H]2CCCC(F)(F)[C@@H]2NC(=S)N2CCC(C)(c3noc(C4CC4)n3)CC2)CC1 [Example 80, 4-(5-cyclopropyl-1,2,4-oxadiazol-3-yl)-N-{(1R,6S)-2,2-difluoro-6-[4-(propan-2-yl)piperazin-1-yl]cyclohexyl}-4-methylpiperidine-1-carbothioamide] | 178 |
